# Tested on: H9c2 cells
# Experiment: Intracellular RSSH analysis by LC-MS/MS after subcellular fractionation
# Type: cell-based
# Settings: 200 μM, 2 h; for HPE-AM adducts of Cys-SSH and GSSH, cytoplasmic fraction: vs vehicle; for Cys-SH and GSH in mitochondria: did not reach statistical significance
# Experimental: After confirming efficient esterase-triggered RSSH generation from these newly developed precursors in PBS (pH 7.4), we next evaluated their ability to release RSSH in cardiac cells. […] H9c2 cells were treated with each donor (200 μM, 2 h), followed by subcellular fractionation using differential centrifugation to isolate cytoplasmic and mitochondrial fractions. Each fraction was subsequently incubated with the RSSH-trapping agent HPE-IAM (5 mM in methanol) to alkylate and stabilize transient RSSH species. The resulting adducts were analyzed by LC–MS/MS.[40, 41] In the cytoplasmic fraction, both donors increased HPE-AM adducts of Cys-SSH and GSSH, with APT-1 showing higher levels than APT-1-TPP (Figure 3a,b).
# Figure 3. Measurement of cysteine hydropersulfide (Cys-SSH) and glutathione hydropersulfide (GSSH) in cytoplasm (a and b) and mitochondria (c and d) of H9c2 cells. Cells were treated with APT-1 (200 μM), APT-1-TPP (200 μM), or vehicle (0.01% DMSO in serum-free medium) for 2 h, followed by subcellular fractionation. Each fraction was incubated with HPE-IAM (5 mM, 30 min) to trap RSSH species prior to LC–MS/MS analysis. Data are mean ± SEM (n = 3); *p ≤ 0.05, **p ≤ 0.01. […]
# Intracellular RSSH Analysis by LC-MS
# H9c2 cells were cultured in 150-mm dishes to 80–90% confluency and treated for 2 h with either control medium (FBS-free DMEM, 0.01% DMSO) or 200 μM RSSH donors (FBS-free DMEM with APT-1 or APT-1-TPP). Cells were washed two times with warm PBS, collected by scraping, and centrifuged at 1,000 × g for 10 min at 4 °C (Sorvall ST 8R, ThermoFisher). Pellets were resuspended in 0.6 mL sucrose buffer; ¼ was reserved for BCA assay and ¾ used for fractionation. Cells were lysed on ice by 20 passages through a 26-G needle and centrifuged at 1,500 × g for 10 min at 4 °C (Z 216 MK, HERMLE). Pellets (nuclear/debris fraction) were collected, and supernatants were centrifuged at 12,000 × g for 10 min at 4 °C. Pellets (mitochondrial fraction) and supernatants (cytoplasmic fraction) were collected. Each of these fractions were resuspended in methanol containing 5 mM HPE-IAM, sonicated (3 × 10 s on/10 s off, Branson Sonifier SFX150), incubated at 37 °C for 30 min, and centrifuged at 16,000 × g for 10 min at 4 °C.
# Supernatants were analyzed by MRM LC-MS/MS (Ultivo Triple Quadrupole, Agilent) using a Poroshell 120 EC-C18 column (4.6 × 100 mm, 2.7 μm; Agilent) at 30 °C, 0.6 mL/min, with the following gradient (solvent A: water + 0.1% TFA; solvent B: acetonitrile + 0.1% TFA): 0–1.5 min, […]
# min, 97% A. Injection volume: 10 μL. Experiments were performed in triplicate (n = 3 biological replicates). Data are shown as mean ± SEM. […]
# Ta b l e S1. MRM parameters for LC-MS/MS
# Analyte Polarity Precursor ion Product ion Collision energy
# Figure S21. Measurement of H2S2, and H2S in cytoplasm (A, B) and mitochondria (C,D) of H9c2 cells treated with APT-1 (200 µM) APT-1-TPP (200 µM), or vehicle (0.01% DMSO in serum-free medium) for 2 h. Data are mean ± SEM (n = 3); *p ≤ 0.05, **p ≤ 0.01.
# Figure S22. Measurement of Cys-SH and GSH in cytoplasm (A, B) and mitochondria (C, D) of H9c2 cells […]
# Cytotoxicity Assessment of Hydropersulfide Precursors in H9c2 and HepG2 cells Cell viability was measured using the Cell Counting Kit-8 (CCK-8, Dojindo).[7] H9c2 cardiomyoblast and HepG2 cells were seeded at a density of 8 × 10³ cells/well in a 96-well plate (flat-bottom, tissue culture-treated). […]
SMILES,Cys-SH and GSH in the cytoplasm,H2S and H2S2 levels in mitochondria,"Cys-SSH and GSSH adducts, mitochondrial fraction (compared with APT-1)","HPE-AM adducts of Cys-SSH and GSSH, cytoplasmic fraction",Cys-SH and GSH in mitochondria,H2S and H2S2 levels in the cytoplasm
CC(=O)NC(C(=O)N(C)CCC[P+](c1ccccc1)(c1ccccc1)c1ccccc1)C(C)(C)SSC(=O)N(C)CCOC(C)=O (stereo not drawn) [APT-1-TPP],significant increases,elevated,substantially higher levels,increased,modest increases,–
COC(=O)C(NC(C)=O)C(C)(C)SSC(=O)N(C)CCOC(C)=O (stereo not drawn) [APT-1],significant increases,–,–,increased,modest increases,elevated

# From paper PMC13224100, “Esterase-Responsive Mitochondria-Targeted Hydropersulfide Donors Mitigate Doxorubicin Cardiotoxicity While Preserving Anticancer Activity” (Angewandte Chemie (International ed. in English), 2025)
